We go through 1 compound from patent US20170333390A1, “PHYTOCHEMICAL COMPOSITIONS INCLUDING SESAMIN FOR ANTI-INFLAMMATORY, ANTI-CYTOKINE STORM, AND OTHER USES” (CHIANG MAI UNIVERSITY, priority 2009, published 2017).

Molecules are shown by their SMILES.

For this assay, the system named is cartilage tissue cultures exposed to IL-1 (ECM degradation, HA release). Kind of assay: HA release from IL-1 exposed cartilage tissue cultures (ELISA). It counts as cell-based. The settings on record: relative to control culture, sulfate. On the procedure: Experiments were conducted to evaluate the anti-inflammatory effects of combinations of particular phytochemical compositions provided by the present disclosure with known substances, compositions, or drugs that are associated with an anti-inflammatory effect and/or an anti-degenerative or tissue integrity preservation effect in connective tissue. In the context of the present disclosure, the term “connective tissue” encompasses connective tissue proper (e.g., dense or fibrous connective tissue), as well as specialized connective tissue such as cartilage or bone. More specifically, experiments were conducted to evaluate the anti-inflammatory, anti-degenerative, and/or structural preservation effects of a combination of particular phytochemical compositions provided by the present disclosure with glucosamine sulfate. In addition, the experiments compared the anti-inflammatory/anti-degenerative effects of the combination of particular sesamin or sesamin-based phytochemical compositions provided by the present disclosure plus glucosamine sulfate, versus the anti-inflammatory/anti-degenerative effects of glucosamine sulfate alone.
Hyaluronic acid (HA) is an important component of the extracellular matrix (ECM), as well as a major component of synovial fluid. HA is present in articular cartilage, and contributes to cartilage resilience. It is known that IL-1 stimulates the synthesis and activity of matrix metalloproteinases and other enzymes that are associated with cartilage degradation as well as rheumatoid arthritis and osteoarthritis. A set of experimental cartilage tissue cultures were prepared using cartilage tissue samples containing HA within their ECMs. As further detailed below, the experimental cartilage tissue cultures selectively incorporated glucosamine sulfate alone; sesamin alone; or a combination of glucosamine sulfate and sesamin. Additionally, a control cartilage tissue culture remained unexposed to either of sesamin or glucosamine sulfate.
ECM degradation was induced in the experimental and control cartilage tissue cultures by exposing the cultures to IL-1. A measure or estimate of a cartilage tissue anti-degenerative effect was defined in accordance with an amount of HA that an experimental cartilage tissue culture released into the tissue culture medium relative to a reference or baseline amount of HA that was released into the tissue culture medium by the control cartilage tissue culture. More particularly, a percentage reduction in the amount of HA released into the tissue culture medium by a given experimental cartilage tissue culture relative to the amount of HA released into the tissue culture medium by the control cartilage tissue culture, indicated below as “Percentage (%) HA Reduction”, conveys or indicates the magnitude of an anti-degenerative or structural preservation effect provided by the experimental cartilage tissue culture under consideration. A corresponding measure or estimate of percentage (%) HA retention by cartilage tissue can also be defined based upon the experimental results. The amount or level of HA present in a given tissue culture medium was detected using ELISA, in a manner that can be understood by one of ordinary skill in the art.

For `N[C@H]1C(O)O[C@H](CO)[C@@H](O)[C@@H]1O.O=S(=O)(O)O` (stereo partly drawn) [Glucosamine Sulfate, glucosamine sulfate, reference compound], the “Percentage (%) HA Reduction” value was “approximately 3%” (glucosamine sulfate 20 mM (9 mg/ml), listed as glucosamine sulfate); 3% (glucosamine sulfate 20 mM (9 mg/ml)); “approximately 28%” (glucosamine sulfate 40 mM (18 mg/ml), listed as glucosamine sulfate); 28% (glucosamine sulfate 40 mM (18 mg/ml)); “approximately 43%” (glucosamine sulfate 80 mM (36 mg/ml), listed as glucosamine sulfate); 43% (glucosamine sulfate 80 mM (36 mg/ml)).
